In US20230123140A1, “DOSE TREATMENTS OF TAUOPATHIES” (AC Immune SA, priority 2020, published 2023):
Where “and” joins values, the source holds several entries; their conditions need not be identical. Equal values may be shown once.

Tests used:
[1] = CSF concentrations of ACI-3024 in MAD cohort MAD-HV3; format: in vivo
Description: Methods for measuring the amount of administered compound, such as ACI-3024, in CSF of a subject are well know in the art. As an example, CSF can be drawn by lumbar puncture and content of the administered compound can be analysed by a LC-MS/MS method, among other methods.
Cohorts MAD-HV1 to MAD-HV3 comprised 10 elderly non-Japanese male or female subjects, 8 were treated with ACI-3024 and 2 were being given placebo. Cohort MAD-HV4 comprised 5 non-elderly Japanese subjects (4 treated with ACI-3024 and 1 given placebo) and 5 […] (4 treated with ACI-3024 and 1 given placebo). Only subjects from MAD HV3 cohort underwent CSF samplings to explore the CSF inflammatory markers, CSF PK, and CSF PD of ACI-3024. For all subjects, dosing was on […], inclusive, and a final single dose administration occurred on […]. Dose in cohort MAD HV1 was 500 mg of ACI-3024 or placebo, QD, fasted. Dose in cohorts MAD HV2 and MAD HV4 was 500 mg of ACI-3024 or placebo, BID (“bis in die” ie., twice a day), fed. Dose in cohort MAD HV3 was 1400 mg of ACI-3024 or placebo, QD (“quaque die” (once a day), fed.

[2] = Toxicokinetics in the 4-week mini-pig toxicity study; format: in vivo; settings: for AUC(0-t) / Cmax / Tmax: Gottingen, minipig, plasma, Day 28, 450 mg/kg oral
Description: Doses tested, 50, 150 and 450 mg/kg were given by p.o. to 3 animals/sex/group daily. The control animals were administered vehicle. The dose volume was 5 mL/kg for all groups.
Toxico Kinetic (TK) was evaluated on all animals on study Day 1 and Day 28 at different time points.

respiratory function = assay: Respiratory function evaluation in mice (whole body plethysmography); format: in vivo, mouse; settings: single oral administration 100, 300 and 750 mg/kg, conscious female mice
Description: This study was conducted to evaluate the potential modifications of respiratory function by ACI-3024 when given as single dose to CD1 mice.
Doses of 100, 300 and 750 mg/kg were administered by oral gavage to 8 females/group. The control animals were administered vehicle. The dose volume was 10 mL/kg for all groups. Animals underwent a whole body plethysmography carried out starting 30 minutes before dosing up to 5 hours after; moreover, a subsequent 1-hour registration was conducted 24 hours post dose.

[3] = both sexes, average M/F minipigs

For `Fc1ccc2c3c([nH]c2c1)CCN(c1ccc2oc(N4CCOCC4)nc2c1)C3` [ACI-3024], the “CSF pre-dose concentrations versus target” value ([1]; MAD, 1400 mg, target established in animal models) was > 30 nM, the Kp ([1]; both sexes, human, CSF, oral, elderly subjects, multiple doses of 1400 mg QD (fed), read-out: CSF concentration as share of the corresponding plasma concentration) was 0.003 to 0.015 and the “dose that would provide sufficient CSF exposure (30 nM)” value ([1]; extrapolated from 1400 mg CSF data) was 300 to 400 mg/day. The “pre-dose (Cmin) CSF concentration” value ([1]; multiple oral doses of 1400 mg, Day 7) was 36.4±13.6 ng/mL and 90 nM, the “dose proportionality of plasma exposure” value ([2]; 50 to 450 mg/kg, except males on Day 1) was “approximately dose-proportionally” and the AUC(0-t) ([2]; female minipigs) was 101 µg·h/mL. For the same compound, the Cmax ([2]; female minipigs) was 7350 ng/mL, the Tmax ([2]; female minipigs) was 4 h and the AUC(0-t) ([2]; male minipigs) was 233 µg·h/mL. For the same compound, the Cmax ([2]; male minipigs) was 12300 ng/mL, the Tmax ([2]; male minipigs) was 6 h and the AUC(0-t) [2, 3] was 167 µg·h/mL. The Cmax [2, 3] was 9840 ng/mL, the Tmax [2, 3] was 5 h and the “effect on respiratory parameters” value (respiratory function) was “did not exert effect”.
